Laboratory results taken from patent US8507484B2, “Preventive and/or therapeutic agent for neutrophilic inflammatory diseases” (Kyowa Hakko Kirin Co., Ltd., priority 2004, dated 2013).
Where a name gives a salt, the structure may show the parent alone.

How the values were obtained:
human GPR4 = target: T1, human GPR4 (Homo sapiens, UniProt P46093); assay: GPR4 antagonism, luciferase reporter assay in human GPR4 assay cells; format: cell-based; details: 1 μmol/L test compound, 10 nmol/L 17β-estradiol, 6 hours, firefly luciferase reporter; for inhibition at 1 µM: read-out: Inhibition rate (%)
T1 construct: expressed in transfected cells; expression induced by 17β-estradiol
Method: Assay cells for human GPR4 were constructed according to the method descried in WO03/087366. By using the assay cells, the constitutive activity of human GPR4 can be detected by activity of a reporter (firefly luciferase).
Plasmid pAGal9-GPR4 for inducible expression of human GPR4 (2 μg: WO03/087366) and reporter plasmid pACREpluc (2 μg; WO03/087366) were co-transferred into 6×10^6 cells of KJMGER8 (WO03/087366) by electroporation. The resultant transformant was suspended in 8 mL of a RPMI1640-ITPSG medium [RPMI medium (Nissui Pharmaceutical Co., Ltd.) containing 6 mmol/L of L-glutamine (Invitrogen Corp.), 100 units/ml of penicillin (Invitrogen Corp.), 100 μg/ml of streptomycin (Invitrogen Corp.), 10 mmol/L of N-2-hydroxyethylpiperazine-N′-2-ethanesulfonic acid (HEPES) (Nacalai Tesque Inc.), 3 μg/ml of insulin (Sigma Co. Ltd.), 5 μg/ml of transferrin (Sigma Co. Ltd.), 5 mmol/L of sodium pyruvate (Wako Pure Chemical Industries, Ltd.), 125 nmol/L of selenious acid (Nacalai Tesque Inc.), and 1 mg/ml of galactose (Nacalai Tesque Inc.)], followed by culture in a CO^2 incubator at 37° C. for 24 hours. After the culture, blasticidin S (Funakoshi Co., Ltd., 2.0 μg/ml), hygromycin B (Wako Pure Chemical Industries, Ltd., 300 μg/ml), and geneticin (Nacalai Tesque Inc., 500 μg/ml) were added to the culture solution, followed by further culture for 14 days to prepare a stable transformant (referred to as “GPR4 assay cells”). The transformant was subcultured in a RPMI1640-ITPSG medium containing blastocidin S (Funakoshi Co., Ltd., 2.0 μg/ml), hygromycin B (manufactured by Wako Pure Chemical Industries, Ltd., 300 μg/ml), and geneticin (Nacalai Tesque Inc., 500 μg/ml).
Similarly, control plasmid pAGal9-nd (2 μg; WO03/087366) and reporter plasmid pACREpluc (2 μg; WO03/087366) were co-transferred in KJMGER8 to prepare a stable transformant (referred to as “control cells”).
The resulting human GPR4 assay cells (expressing GPR4 by stimuli of 17β-estradiol) were seeded onto a white plate at a concentration of 10^5 cells per well. Then, 17β-estradiol (Sigma Co. Ltd.), which was diluted with a medium so that the concentration in the reaction solution was 10 nmol/L, and 1 μmol/L of test compound were added to each well, followed by reaction in a 5% CO2 incubator at 37° C. for 6 hours. Then, a Steady Glo Luciferase Assay System (Promega Co., Ltd.) solution was added to terminate the reaction, and the quantity of light emitted per second was measured by a TOP count (Packard, Meriden, Conn., USA).
The activity (GPR4 antagonism) of the test compound was shown by an inhibition rate calculated on the basis of counts (counts per second) in the presence or absence of 17β-estradiol according to the following equation:
[formula] wherein A, B, and C represent the following values: […]
A: counts when 17β-estradiol and test compound were added
B: counts when neither 17β-estradiol nor test compound was added
C: counts when only 17β-estradiol was added

[1] = system: LPC-induced neutrophil infiltration into airway; assay: Inhibitory activity on LPC-induced neutrophil infiltration into airway (Test Example 3); format: in vivo; details: 10 mg/kg orally 1 hour before intratracheal LPC; BALF 6 hours after LPC; male BALB/c mice
Method: Male BALB/c mice of 7-week old were intratracheally administered with 0.1 mL of a 1 mg/mL LPC solution prepared by dissolving in a 0.1% aqueous bovine serum albumin solution or a 0.1% aqueous bovine serum albumin solution (negative control group). Six hours after, bronchoalveola lavage was conducted, and the neutrophil infiltration in the recovered BALF was measured. In addition, Compound 118 or Compound 160 was suspended in a 0.5% aqueous methyl cellulose solution (solvent), and 10 mg/kg of the resultant suspension was orally administered to the mice 1 hour before LPC administration. In a […] control group, the solvent was administered instead of the test compound suspension. The infiltration of neutrophils was measured by measuring the number of cells in the recovered BALF with an automatic blood counter (Celltac α MEK-6158, Nihon Kohden Corporation, Tokyo) and then counting the number of neutrophils under a microscope using a smear prepared with Cytospin 3 (Shandon, Inc., Pittsburgh, Pa., USA). The number of neutrophils was calculated by multiplying the total number of cells by the percentage of the neutrophils. In this test, five mice per group were used for Compound 118, and six mice per group were used for Compound 160.

[2] = system: LPC-induced neutrophil infiltration into airway; assay: Inhibitory activity on LPC-induced neutrophil infiltration into airway (Test Example 2); format: in vivo; details: 100 mg/kg orally 1 hour before intratracheal LPC; BALF 6 hours after LPC; male BALB/c mice
Method: male BALB/c mice of 7-week old were intratracheally administered with 0.1 ml of a 1 mg/mL LPC solution prepared by dissolving in a 0.1% aqueous bovine serum albumin solution or a 0.1% aqueous bovine serum albumin solution (negative control group). Six hours after, bronchoalveola lavage was conducted, and the neutrophil infiltration in the recovered BALF was measured. In addition, Compound 53 or Compound 81 was suspended in a 0.5% aqueous methyl cellulose solution (solvent), and 100 mg/kg of the resultant suspension was orally administered to the mice 1 hour before LPC administration. In a […] control group, the solvent was administered instead of the test compound suspension. The infiltration of neutrophils was measured by measuring the number of cells in the recovered BALF with an automatic blood counter (Celltac α MEK-6158, Nihon Kohden Corporation, Tokyo) and then counting the number of neutrophils under a microscope using a smear prepared with Cytospin 3 (Shandon, Inc., Pittsburgh, Pa., USA). The number of neutrophils was calculated by multiplying the total number of cells by the percentage of the neutrophils. In this test, six mice per group were used for Compound 53, and six or seven mice per group were used for Compound 81.

T1 sequence (P46093 whole entry): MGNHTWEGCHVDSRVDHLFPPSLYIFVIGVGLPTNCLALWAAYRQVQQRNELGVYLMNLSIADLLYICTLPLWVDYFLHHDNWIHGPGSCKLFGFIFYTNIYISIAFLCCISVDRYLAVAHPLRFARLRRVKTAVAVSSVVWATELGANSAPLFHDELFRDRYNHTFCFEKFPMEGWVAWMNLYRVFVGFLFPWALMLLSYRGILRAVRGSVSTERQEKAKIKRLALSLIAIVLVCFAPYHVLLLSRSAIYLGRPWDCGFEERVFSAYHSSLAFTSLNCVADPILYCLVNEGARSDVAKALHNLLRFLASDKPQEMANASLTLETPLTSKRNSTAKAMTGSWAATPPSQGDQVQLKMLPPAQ

Structure (SMILES): CCc1nc2c(C)cc(C)nc2n1Cc1cccc(C(=NO)c2cccc(CN3CCCC3)c2)c1 [Compound 24, 1-(3-{[3-(2-Ethyl-5,7-dimethylimidazo[4,5-b]pyridin-3-ylmethyl)phenyl]hydroxyiminomethyl}benzyl)pyrrolidine]
- inhibition at 1 µM (human GPR4): 34%
- melting point: 231 to 236 °C

Structure (SMILES): CCc1nc2c(C)cc(C)nc2n1Cc1ccc(C(=O)c2ccccc2)cc1 [Compound 1, 4-(2-Ethyl-5,7-dimethylimidazo[4,5-b]pyridin-3-ylmethyl)benzophenone]
- inhibition at 1 µM (human GPR4): 31%
- melting point: 98 °C

Structure (SMILES): CCc1nc2c(C)cc(C)nc2n1Cc1cnc(Nc2ccccc2)nc1 (as salt: hydrochloride)
- melting point: 146 to 150 °C

Structure (SMILES): CCc1nc2c(C)cc(C)nc2n1Cc1ccc(N[C@H]2CC[C@H](C(=O)NCCN3CCCC3)CC2)cc1 [Compound 118, trans-4-[4-(2-Ethyl-5,7-dimethyl-3H-imidazo[4,5-b]pyridin-3-ylmethyl)phenylamino]cyclohexanecarboxylic acid [2-(pyrrolidin-1-yl)ethyl]amide]
- suppression of increase in the number of neutrophils in BALF as compared with the positive control group [1]: 60%
- inhibition at 1 µM (human GPR4): 97%

Structure (SMILES): Cc1cc(C)c2nc(C)n(Cc3ccc(NCC4CCN(C5CCOCC5)CC4)cc3)c2n1 [Compound 158, 4-[4-(2,5,7-Trimethyl-3H-imidazo[4,5-b]pyridin-3-ylmethyl)phenylamino]methyl-1-(4-tetrahydropyranyl)piperidine]
- inhibition at 1 µM (human GPR4): 83%

Structure (SMILES): CCc1nc2c(C)cc(C)nc2n1Cc1cccc(Nc2ccccc2)c1 [Compound 98]
- Inhibition rate (%) (human GPR4): 37%

Structure (SMILES): Cc1cc(C)c2nc(C)n(Cc3ccc(NCC4CCN(C5CCN(C)CC5)CC4)cc3)c2n1 [Compound 160, 4-[4-(2,5,7-Trimethyl-3H-imidazo[4,5-b]pyridin-3-ylmethyl)phenylamino]methyl-1-(1-methylpiperidin-4-yl)piperidine]
- suppression of increase in the number of neutrophils in BALF as compared with the positive control group [1]: 74%

Structure (SMILES): CCc1nc2c(C)cc(C)nc2n1Cc1ccc(NC(=O)c2cccc3ccccc23)cc1 [Compound 53]
- Inhibition rate (%) (human GPR4): 74%
- suppression of increase in the number of neutrophils in BALF as compared with the positive control group [2]: 47%

Structure (SMILES): CCc1nc2c(C)cc(C)nc2n1Cc1ccc(Nc2ccccc2)cc1 [Compound 97, {4-(2-Ethyl-5,7-dimethylimidazo[4,5-b]pyridin-3-ylmethyl)phenyl}phenylamine]
- inhibition at 1 µM (human GPR4): 45%

Structure (SMILES): CCc1nc2c(C)cc(C)nc2n1Cc1ccc(NC(=O)OC(C)(C)C)cc1 [Compound 81]
- Inhibition rate (%) (human GPR4): 77%
- suppression of increase in the number of neutrophils in BALF as compared with the positive control group [2]: 42%

Structure (SMILES): CCc1nc2c(C)cc(C)nc2n1Cc1ccc(NCC2CCNCC2)cc1 [Compound 143, 4-[4-(2-Ethyl-5,7-dimethyl-3H-imidazo[4,5-b]pyridin-3-ylmethyl)phenylamino]methylpiperidine]
- inhibition at 1 µM (human GPR4): 97%
